From US9505781B2, “Compositions comprising thienopyrimidine and thienopyridine compounds and methods of use thereof” (The Regents of the University of Michigan, priority 2013, dated 2016)

Biological target: T1, menin-MLL interaction (Homo sapiens, UniProt O00255)
T1 sequence (O00255 1-610): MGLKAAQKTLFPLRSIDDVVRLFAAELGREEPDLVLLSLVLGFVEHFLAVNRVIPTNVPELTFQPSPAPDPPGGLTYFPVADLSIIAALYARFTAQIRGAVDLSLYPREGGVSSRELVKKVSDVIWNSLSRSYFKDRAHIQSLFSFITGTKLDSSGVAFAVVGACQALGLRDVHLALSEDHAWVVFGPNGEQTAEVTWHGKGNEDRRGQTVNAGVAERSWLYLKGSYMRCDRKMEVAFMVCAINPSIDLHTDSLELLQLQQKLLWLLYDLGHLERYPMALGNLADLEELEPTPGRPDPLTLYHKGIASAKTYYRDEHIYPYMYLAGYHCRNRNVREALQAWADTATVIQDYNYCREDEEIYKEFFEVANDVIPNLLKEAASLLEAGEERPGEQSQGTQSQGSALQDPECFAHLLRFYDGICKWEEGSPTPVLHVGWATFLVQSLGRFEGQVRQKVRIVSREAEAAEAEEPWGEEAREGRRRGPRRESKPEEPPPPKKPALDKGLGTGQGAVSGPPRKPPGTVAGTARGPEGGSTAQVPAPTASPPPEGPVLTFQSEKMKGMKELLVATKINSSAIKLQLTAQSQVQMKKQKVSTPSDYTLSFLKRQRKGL
Test: biochemical
Excerpt: Compounds that inhibit the interaction decrease the fluorescence anisotropy which is being used as a read-out for compound screening and for IC50 determination.

O=C(Cc1ccc(F)cc1)N1CCN(c2ncnc3sc(CC(F)(F)F)cc23)CC1 [Compound 75]
IC50: 100 to 500 nM

CS(=O)(=O)N(CC#N)c1ccc(C(F)(F)C(=O)N2CCN(c3ncnc4sc(CC(F)(F)F)cc34)CC2)cc1 [Compound 104]
IC50: 500 to 2000 nM

FC(F)(F)Cc1cc2c(NCC3CCN(Cc4ccc(CN5CCOCC5)cc4)CC3)ncnc2s1 [Compound 272]
IC50: 500 to 2000 nM

Cc1c(CC(F)(F)F)sc2ncnc(N3CCN(c4nnc(C(F)(F)F)s4)CC3)c12 [Compound 7]
IC50: 100 to 500 nM

N#Cc1cc2c(OC(F)F)c(CN3CCC(Nc4ncnc5sc(CC(F)(F)F)cc45)CC3)ccc2[nH]1 [Compound 408]
IC50: 100 to 500 nM

N[C@H]1CN(Cc2ccccc2)CC[C@@H]1Nc1ncnc2sc(CC(F)(F)F)cc12 [Compound 166]
IC50: 100 to 500 nM

OC(c1cc2c(N3CCN(c4nnc(C(F)(F)F)s4)CC3)ncnc2s1)C(F)(F)F (centres unmarked) [Compound 23]
IC50: 500 to 2000 nM

O=C(C1CCCCC1)N1CCN(c2ncnc3sc(CC(F)(F)F)cc23)CC1 [Compound 87]
IC50: 500 to 2000 nM

Cc1c(CN2CCC(Nc3ncnc4sc(CC(F)(F)F)cc34)CC2)ccc2c1cc(C#N)n2CCN1CCN(C(=O)CCc2ccccc2)CC1 [Compound 341]
IC50: < 100 nM

Cc1c(CN2CCC(Nc3ncnc4sc(CC(F)(F)F)cc34)CC2)ccc2c1cc(C#N)n2CC1CCC(=O)N1 (centres unmarked) [Compound 427]
IC50: < 100 nM

CCCCc1cc2c(N3CCN(c4nnc(C(F)(F)F)s4)CC3)ncnc2s1 [Compound 34]
IC50: 500 to 2000 nM

CCCCC(O)(CO)Cn1c(C#N)cc2cc(CN3CCC(Nc4ncnc5sc(CC(F)(F)F)cc45)CC3)ccc21 (centres unmarked) [Compound 308]
IC50: < 100 nM

CN1CCN(S(=O)(=O)Nc2ccc(CC(=O)N3CCN(c4ncnc5sc(CC(F)(F)F)cc45)CC3)cc2)CC1 [Compound 55]
IC50: < 100 nM

O=C(Cc1ccc2cc[nH]c2c1)N1CCN(c2ncnc3sc(CC(F)(F)F)cc23)CC1 [Compound 81]
IC50: 100 to 500 nM

CS(=O)(=O)N(CC1CC1)c1ccc(CC(=O)N2CCN(c3ncnc4sc(CC(F)(F)F)cc34)CC2)cc1 [Compound 102]
IC50: 500 to 2000 nM

COCCOCCOC(CO)Cn1c(C#N)cc2cc(CN3CCC(Nc4ncnc5sc(CC(F)(F)F)cc45)CC3)ccc21 (centres unmarked) [Compound 319]
IC50: < 100 nM

Cc1c(CN2CCC(Nc3ncnc4sc(CC(F)(F)F)cc34)CC2)ccc2c1cc(C#N)n2CCN1CCNC(C(N)=O)C1 (centres unmarked) [Compound 363]
IC50: < 100 nM

Cc1c(CN2CCC(Nc3ncnc4sc(CC(F)(F)F)cc34)CC2)ccc2c1cc(C#N)n2CC(CO)OC(C)C (centres unmarked) [Compound 302]
IC50: < 100 nM

CC1(C)CN=C(C2C[C@@H]3C[C@H]2CN3c2ncnc3sc(CC(F)(F)F)cc23)S1 (mixture of isomers) [Compound 14]
IC50: 100 to 500 nM

OCCCN(c1ncnc2sc(CC(F)(F)F)cc12)C1CCN(Cc2ccccc2)CC1 [Compound 127]
IC50: 100 to 500 nM

Cc1c(CN2CCC(Nc3ncnc4sc(CC(F)(F)F)cc34)CC2)ccc2c1cc(C#N)n2CCN1CCNC(C(F)(F)F)C1 (centres unmarked) [Compound 378]
IC50: < 100 nM

FC(F)(F)Cc1cc2c(NCC3CCN(Cc4ccc(N5CCOCC5)cc4Cl)CC3)ncnc2s1 [Compound 259]
IC50: 100 to 500 nM

NCc1ccc(CN2CCC(Nc3ncnc4sc(CC(F)(F)F)cc34)CC2)cc1 [Compound 137]
IC50: 500 to 2000 nM

CS(=O)(=O)N(CC(N)=O)c1ccc(CC(=O)N2CCN(C3=NC=NC4SC(CC(F)(F)F)=CC34)CC2)c(Cl)c1 (centres unmarked) [Compound 84]
IC50: 100 to 500 nM

CCCC(c1ccc(CC(=O)N2CCN(c3ncnc4sc(CC(F)(F)F)cc34)CC2)cc1)S(C)(=O)=O (centres unmarked) [Compound 98]
IC50: 500 to 2000 nM

OCc1cccc2c(CN3CCC(Nc4ncnc5sc(CC(F)(F)F)cc45)CC3)c[nH]c12 [Compound 242]
IC50: 100 to 500 nM

FC(F)(F)c1nnc(N2CCN(c3ncnc4sc(C5CC5)cc34)CC2)s1 [Compound 28]
IC50: 500 to 2000 nM

CCn1c(C#N)cc2cc(CN3CCC(Nc4ncnc5sc(CC(F)(F)F)cc45)CC3)ccc21 [Compound 177]
IC50: < 100 nM

N#Cc1c(F)c2cc(CN3CCC(Nc4ncnc5sc(CC(F)(F)F)cc45)CC3)ccc2n1CC(N)=O [Compound 213]
IC50: < 100 nM
